In test [1] the test system is MM cell lines (MM.1S, U266, RPMI-8226, MM.1R). As to the kind of experiment: Annexin V-PI apoptosis, single-agent AR-42 in MM cell lines. The class given is cell-based, human. The settings on record: 0.1 μM, 24-hr; all MM cell lines tested. As to the method:
Growth inhibitory and pro-apoptotic properties of AR-42 as a single agent treatment agent have been reported previously in numerous malignancies, including MM. Because of the potent immunomodulatory effects observed with classical pan-HDACi's, immunology-related gene networks altered upon AR-42 treatment in MM cells were investigated using nCounter technology to analyze the effects of AR-42 on the expression of 511 human genes in MM.1S cells following 24-hr treatment with 0.1 μM AR-42.
(§1) CD44 surface expression was analyzed by staining cells with CD44-FITC antibody (BD Biosciences) for 30 min. in the dark, at room temperature. Apoptosis was measured by Annexin V-FITC and Propidium Iodide (PI) (Clontech) staining for 15 min. in the dark, at room temperature and data immediately acquired on a Beckman Coulter FC500 (Beckman Coulter) machine. Analysis was conducted using the FlowJo Software vX.0.7 (Tree Star Inc.). For the multiparametric analysis, the bone marrow samples were stained with CD38-PE (347687; BD Bioscience), CD138-APC (347193; BD Bioscience), CD45-ECD (A07784; Beckman Coulter), CD44-FITC (BD Bioscience) and AnnexinV-FITC (Clontech) for 30 minutes, washed with PBS and immediately analyzed with Gallios cytometer (Beckman Coulter).

The test system of test [2] is CD44. Nature of the test: CD44 expression in whole bone marrow of MM patients by flow cytometry. In kind it is cell-based, human. To be noted: 24 hrs; all 5 Len-refractory and 2 of the 3 newly diagnosed MM patients. The method, then: Since MM cell survival is strongly dependent on microenvironment, the effects of AR-42 in combination with Len on MM cell killing in the context of the bone marrow (BM) milieu was examined. Total BM samples obtained from 5 Len-refractory MM (patients 1, 2, 3, 4, and 7) and 3 newly diagnosed MM patients (patients 5, 6, and 8) were treated with AR-42 (0.2 μM) and Len (5 μM) as single agents, and in combination. […] The BM cells from the same patients were used to assess CD44 expression at 24 hrs after AR-42 treatment.
as §1
Mouse data were evaluated by ANOVA, and synergy between AR-42 and Len was tested by interaction contrast. […]

A further test relates to CD44 3′UTR element. Nature of the test: CD44 3'UTR luciferase reporter assay in MM.1S cells. The class given is cell-based, human. The settings on record: 0.2 μM, 24 hours, vs untreated cells. As to the method:
To address the molecular mechanism(s) responsible for downregulation of CD44 gene, the potential role of one or more cis regulatory regions was considered. […] The CD44 3′UTR element was subcloned downstream from the SV40 promoter-driven luciferase gene and transiently transfected the resulting reporter plasmid into MM.1S cells. Incubation of these cells with 0.2 μM AR-42 for 24 hours decreased luciferase activity detecting the activity of the CD44 3′UTR element by 35% as compared to untreated cells (FIG. 5A).
(Forward) 5′-gctagc[…]-3′ (SEQ ID NO: 1) and 5′- gctagc[…]-3′ (SEQ ID NO: 2) (engineered Nhel sites are in lower case), and the products were cloned into Xbal site downstream from the luciferase gene in pGL3-control vector (Promega). To generate IGF2BP3 luciferase reporter constructs, the 3′UTR was amplified by PCR using primers: (Forward) 5′-[…]-3′ (SEQ ID NO: 3) and (Reverse) 5′-[…]-3′ (SEQ ID NO: […]), and cloned into Xbal site of pGL3-control vector (Promega). Mutations in the miR-9-5p binding site of the IGF2BP3 3′UTR were introduced by the QuikChange Mutagenesis Kit (Stratagene) and the following primers:
Hela and 293T cells were transfected with 500 ng of 3′UTR-pGL3-control plasmid and 50 ng of Renilla luciferase expression construct (pRL-TK; Promega), using Lipofectamine 2000 (Invitrogen). […]
Background: A reporter such as luciferase makes a cellular process visible.

The next test relates to CD48. As to the kind of experiment: CD48 protein and mRNA expression in MM.1S cells. The class given is cell-based, human. To be noted: 48 hours. The method, then:
(§2) The down-regulation of CD44 cell surface expression was also observed by flow cytometry in all MM cell lines tested expressing detectable CD44 levels (FIG. 1D, FIGS. 2E-2F and data not shown).
Cells were harvested by centrifugation, washed with PBS and lysed using buffer composed of 50 mM Tris (pH 7.5), 150 mM NaCl, 10% glycerol, 1.0% NP-40, 0.1% SDS, supplemented with protease and phosphatase inhibitors. Protein concentrations were estimated by Bradford assay and equivalent quantities of the lysates were resolved on 4-20% Tris-HCl SDS-PAGE TGX gels (Bio-Rad). Proteins were transferred to nitrocellulose membranes and stained for acetyl-histone H3 (Milipore), acetyl-histone H4 (Milipore), IGF2BP1 (Cell Signaling Technology), IGF2BP3 (IMP-3, Santa Cruz Biotechnology), CD44 (Santa Cruz Biotechnology), CD48 (Abcam), Drosha (Cell Signaling Technology), or glyceraldehyde 3-phosphate dehydrogenase (GAPDH, Cell Signaling Technology), followed by anti-mouse, or anti-rabbit IgG-HRP (GE Healthcare). Signals were developed using Pierce ECL Western Blotting Substrate (Thermo Fisher Scientific).

Another test relates to MM cells. Nature of the test: IC50 concentrations of HDAC inhibitors in MM cells. The settings on record: Homo sapiens. In kind it is cell-based.
Test [3] deals with CD44. Nature of the test: CD44 cell surface expression by flow cytometry in MM cell lines. The class given is cell-based, human. As to the method:
as §2, §1
(A flow cytometer gives signals particle by particle.)

Experimental findings from patent US10022342B2, “Methods and compositions for treating multiple myeloma” (Ohio State Innovation Foundation, priority 2015, dated 2018) are described below.

pIC50: −log10 of the molar value.

In general, pIC50 refers to −log10 of the IC50, conventionally taken in molar units. Higher therefore signals a low IC50. Turning to `CC(C)[C@H](C(=O)Nc1ccc(C(=O)NO)cc1)c1ccccc1` [AR-42, (S)-N-hydroxy-4-(3-methyl-2-phenylbutanamido)benzamide], in test [1], the “apoptosis by Annexin V-PI staining” value was “without significant increase of apoptosis”. The “CD44 expression in whole BM” value in the test on CD44 [2] is reported as “Downregulation”. The “decrease of luciferase activity of the CD44 3′UTR element” value in the test with CD44 3′UTR element is 35%. In the test with CD48, the “CD48 protein and mRNA levels” value was “consistent up-regulation”. This compound gave a pIC50 in the test on MM cells of 6.70. Besides, the “CD44 cell surface expression” value with CD44 [3] (all MM cell lines tested expressing detectable CD44) was “down-regulation”. In the test on CD44 [3] (at comparable IC50 concentrations, vs SAHA, LBH589, JQ12), the “CD44 downregulation compared to other HDACi's” value is recorded as “greater CD44 downregulation”.
